Results on 14 molecules are retold here after patent US4064252A, “Substituted N-(carboxymethyl)-3-aminopropan-2-ol derivatives” (Nippon Shinyaku Co., Ltd., priority 1975, dated 1977).

The subject of one experiment is serum triglyceride. The experiment in a line: Blood lipid lowering in 8 week-old male rats having normal serum lipid content: serum triglyceride. It counts as in vivo, rat. The note with it: 3.5 days, vs non-treated control; for inhibition in vivo at 10 mg/kg/day / inhibition in vivo at 20 mg/kg/day / inhibition in vivo at 100 mg/kg/day: Rattus norvegicus, po, 84 h, read-out: % decrease of serum triglyceride; for inhibition in vivo at 10 mg/kg/day: 10 mg/kg/day oral. The method, then: (§1) 1. Blood lipid lowering activities in 8 week-old male rats having normal serum lipid content.
(§2) The values shown in Table 1 indicate the concentration changes of serum cholesterol and serum triglycride after the treatment with the shown various doses/day for 3.5 days. The mentioned compounds were orally administered to rat's groups consisting of 10 animals through a stomach tube twice a day. Blood was usually withdrawn 4 hours after the last administration. Serum cholesterol concentration was determined by the method of Levine and Zak, and triglyceride by the method of Kassler and Laderer by means of autoanalyzer. In all examples shown in Table 1, % decrease of treated groups are then to the non-treated reference group (control group), where the value of control group is represented as 100%.
(§3) The values in Table 5 indicate the concentration changes of serum cholesterol and the triglyceride after the treatment with the shown various doses per day for 3.5 days. These compounds were orally administered to rat groups consisting of 10 animals through a stomach tube twice a day. Blood was usually withdrawn 4 hours after the last administration. Serum cholesterol concentration was determined by the method of Levine and Zak, and serum triglyceride by the method of Kessler and Lederer by means of autoanalyzer. In all examples shown in Table 1, % decrease of the treated groups are to the non-treated control group where the value of control group is represented as 100%. […] The following examples are given to illustrate the representative embodiment of this invention, but this invention is not limited to these examples.

Another experiment deals with serum cholesterol. The experiment can be described thus: Blood lipid lowering in 8 week-old male rats having normal serum lipid content: serum cholesterol. It counts as in vivo. The settings on record: Rattus norvegicus, po, 84 h, 3.5 days, vs non-treated control, read-out: % decrease of serum cholesterol; for inhibition in vivo at 10 mg/kg/day: 10 mg/kg/day oral; for inhibition in vivo at 20 mg/kg/day: 20 mg/kg/day oral; for inhibition in vivo at 100 mg/kg/day: 100 mg/kg/day oral. The method, then: as §1, §2, §3

The test system of another experiment is blood cholesterol. The experiment can be described thus: Blood cholesterol lowering in thiouracil induced hypercholesterolemia of thiouracil loaded 9 week-old male rats. It counts as in vivo, rat. The note with it: 4 days, vs thiouracil loaded control. How it is done: 3. Blood cholesterol lowering activities in the thiouracil induced hypercholesterolemia of thiouracil loaded 9 week-old male rats.
The compounds illustrated in Table 3 were orally administered for 4 days from the 4th day to rats given 0.1% thiouracil solution for 3 days as the pretreatment. Fasting for 18 hours after the last administration, blood was withdrawn. In all examples shown in Table 3, % inhibition of treated groups are to the thiouracil loaded control group, in which the changed value of cholesterol before and after the thiouracil load is represented as 100%.

A further experiment concerns blood triglyceride. The experiment in a line: Blood triglyceride lowering in carbohydrate (fructose) induced hypertriglyceridemia of fructose loaded 9 week-old male rats. It counts as in vivo, rat. The note with it: 3 days, vs fructose loaded control. The method, then:
2. Blood triglyceride lowering activities in the carbohydrate induced hypertriglyceridemia of fructose loaded 9 week-old rats.
Compounds shown in Table 2 were orally administered to the rat groups consisting of 10 animals for 3 days. Drinking of 10% fructose solution continued for 48 hours prior to sacrifice.
Fasting for 18 hours after the last administration, blood was withdrawn. In all examples shown in Table 2, % inhibitions of the treated groups are to the fructose loaded control group. The changed value of triglyoride content before and after the fructose load in the control group is represented as 100%.

Read-outs that look alike come from different tables or passages of the source.

`O=C(O)CN(CC(O)COc1ccc(Cl)cc1)c1ccccc1` (stereo not shown) [Compound 2]: the inhibition in vivo at 10 mg/kg/day with serum triglyceride (Table 1) amounted to 53.6%; in the experiment on serum cholesterol (Table 1), 15.5%. Further, the “% decrease of serum triglyceride” value in the experiment with serum triglyceride (Table 1, 20 mg/kg/day oral, 20 mg/kg/day) worked out at 73.2%; in the experiment with serum triglyceride (Table 1, 100 mg/kg/day oral, 100 mg/kg/day), 72.0%. Also, in the experiment on serum cholesterol (Table 1), the inhibition in vivo at 20 mg/kg/day was 28.8%. For the same molecule, in the experiment with serum cholesterol (Table 1), the inhibition in vivo at 100 mg/kg/day came to 33.5%.
For the molecule `COC(=O)CN(CC(O)COc1ccc(Cl)cc1)c1ccccc1` (stereo not shown) [Compound 4], the “inhibition ratio (hypocholesterolemic effect)” value was 51.9% in the experiment on blood cholesterol (10 mg/kg/day oral), 57.9% with blood cholesterol (30 mg/kg/day oral) and 85.5% with blood cholesterol (100 mg/kg/day oral). For the same molecule, the inhibition in vivo at 10 mg/kg/day with serum triglyceride (Table 1) is 36.5%; in the experiment on serum cholesterol (Table 1) it was 22.9%. The inhibition in vivo at 20 mg/kg/day in the experiment on serum triglyceride (Table 1, 20 mg/kg/day oral) worked out at 54.4%; in the experiment with serum cholesterol (Table 1), 23.4%. Besides, the inhibition in vivo at 100 mg/kg/day in the experiment with serum triglyceride (Table 1, 100 mg/kg/day oral) was 59%; in the experiment on serum cholesterol (Table 1), 39.1%. The entries for the “inhibition ratio (hypotriglyceridemic effect)” value in the experiment on blood triglyceride (10 mg/kg/day oral), in the experiment with blood triglyceride (30 mg/kg/day oral) and with blood triglyceride (100 mg/kg/day oral) were 46.5%, 69.9% and 93.0%, respectively.
As to `CCOC(=O)CN(CC(O)COc1ccc(Cl)cc1)c1ccccc1` (stereo not shown) [Compound 5], the “inhibition ratio (hypocholesterolemic effect)” value with blood cholesterol (10 mg/kg/day oral) is given as 49.9%; in the experiment on blood cholesterol (30 mg/kg/day oral) it was 69.2%; with blood cholesterol (100 mg/kg/day oral), 100.7%.
As for `CCCOC(=O)CN(CC(O)COc1ccc(Cl)cc1)c1ccccc1` (stereo not shown) [Compound 6], the “inhibition ratio (hypocholesterolemic effect)” value with blood cholesterol (10 mg/kg/day oral) is listed as 58.4%; in the experiment with blood cholesterol (30 mg/kg/day oral) it was 70.1%; with blood cholesterol (100 mg/kg/day oral), 94.9%. The inhibition in vivo at 20 mg/kg/day in the experiment on serum triglyceride (Table 1, 20 mg/kg/day oral) came out at 49.6%; in the experiment on serum cholesterol (Table 1), 34.7%. Besides, the inhibition in vivo at 100 mg/kg/day was 72.4% with serum triglyceride (Table 1, 100 mg/kg/day oral) and 41.2% in the experiment on serum cholesterol (Table 1). Also, the “inhibition ratio (hypotriglyceridemic effect)” value in the experiment with blood triglyceride (10 mg/kg/day oral) came out at 55.9%; in the experiment on blood triglyceride (30 mg/kg/day oral), 67.6%; with blood triglyceride (100 mg/kg/day oral), 85.7%.
Consider `CCCCOC(=O)CN(CC(O)COc1ccc(Cl)cc1)c1ccccc1` (stereo not shown) [Compound 10], for which the “inhibition ratio (hypocholesterolemic effect)” value with blood cholesterol (10 mg/kg/day oral) was 52.6%; with blood cholesterol (30 mg/kg/day oral), 87.4%; in the experiment on blood cholesterol (100 mg/kg/day oral), 94.9%. The “inhibition ratio (hypotriglyceridemic effect)” value amounted to 48.5% in the experiment on blood triglyceride (10 mg/kg/day oral), 61.5% with blood triglyceride (30 mg/kg/day oral) and 63.3% in the experiment with blood triglyceride (100 mg/kg/day oral).
For `COC(=O)CN(CC(O)COc1ccccc1Cl)c1ccccc1` (stereo not shown) [Compound 11], the inhibition in vivo at 20 mg/kg/day in the experiment with serum triglyceride (Table 1, 20 mg/kg/day oral) is 65.4%; in the experiment with serum cholesterol (Table 1) it was 21.5%. In addition, the inhibition in vivo at 100 mg/kg/day in the experiment with serum triglyceride (Table 1, 100 mg/kg/day oral) was found to be 66%; in the experiment with serum cholesterol (Table 1), 30.3%.
For `COC(=O)CN(CC(O)COc1ccc(C(C)(C)C)cc1)c1ccccc1` (stereo not shown) [Compound 18] the same measures were 54.5%, 12.4%, 59.3% and 14.9%.
Regarding `NC(=O)CN(CC(O)COc1ccc(Cl)cc1)c1ccccc1` (stereo not shown) [Compound 32], the inhibition in vivo at 100 mg/kg/day worked out at 56.6% in the experiment with serum triglyceride (Table 1, 100 mg/kg/day oral) and 29.6% with serum cholesterol (Table 1).
Consider `CCN(CC)C(=O)CN(CC(O)COc1ccc(Cl)cc1)c1ccccc1` (stereo not shown) [Compound 35], for which the inhibition in vivo at 100 mg/kg/day with serum triglyceride (Table 1, 100 mg/kg/day oral) worked out at 52.7%; in the experiment with serum cholesterol (Table 1), 19.8%.
For `O=C(CN(CC(O)COc1ccc(Cl)cc1)c1ccccc1)NCc1ccccc1` (stereo not shown) [Compound 41] the same measures were 53.2% and 12.3%.
Regarding `COC(=O)CN(CC(COc1ccc(Cl)cc1)OC(C)=O)c1ccccc1` (stereo not shown) [Compound 50, 2-acetoxy-1-(p-chlorophenoxy)-3-(N-carbomethoxymethyl-N-phenylamino) propane], the inhibition in vivo at 20 mg/kg/day is 65.4% in the experiment with serum triglyceride (Table 5, 20 mg/kg/day oral) and 21.5% in the experiment on serum cholesterol (Table 5). In addition, the inhibition in vivo at 100 mg/kg/day in the experiment on serum triglyceride (Table 5, 100 mg/kg/day oral) is 66%; with serum cholesterol (Table 5), 30.3%.
The matching figures for `CCOC(=O)CN(CC(COc1ccc(Cl)cc1)OC(=O)c1cccnc1)c1ccccc1` (stereo not shown) [Compound 57]: 54.5%, 12.4%, 59.3% and 14.9%.
For `N[C@@H](Cc1cc(I)c(Oc2cc(I)c(O)c(I)c2)c(I)c1)C(=O)O` [L-thyroxine, reference compound], the “inhibition ratio (hypocholesterolemic effect)” value with blood cholesterol (3 mg/kg/day oral) amounted to 54.8%.
With `CCOC(=O)C(C)(C)Oc1ccc(Cl)cc1` [clofibrate, reference compound], the inhibition in vivo at 10 mg/kg/day in the experiment on serum triglyceride (Table 1) was 6.2%; in the experiment on serum cholesterol (Table 1) it was 5.8%. In addition, the inhibition in vivo at 20 mg/kg/day with serum triglyceride (Table 1, 20 mg/kg/day oral) worked out at 36.3%; in the experiment on serum triglyceride (Table 5, 20 mg/kg/day oral), 36.3%; in the experiment on serum cholesterol (Table 1) it was 12.6%; in the experiment on serum cholesterol (Table 5), 12.6%. Besides, the inhibition in vivo at 100 mg/kg/day in the experiment with serum triglyceride (Table 1, 100 mg/kg/day oral) came out at 51.7%; in the experiment with serum triglyceride (Table 5, 100 mg/kg/day oral), 51.7%; in the experiment on serum cholesterol (Table 1) it was 37%; in the experiment on serum cholesterol (Table 5), 37%. The “inhibition ratio (hypotriglyceridemic effect)” value with blood triglyceride (10 mg/kg/day oral) is -16.6%; with blood triglyceride (30 mg/kg/day oral) it was -2.3%; in the experiment with blood triglyceride (100 mg/kg/day oral), 23.2%.
